Source: patent publication US20110082130A1 (LIGAND PHARMACEUTICALS, INC., priority 2006, published 2011)

The molecules below were run against T1, chimeric human H3 receptor (Homo sapiens, UniProt Q9Y5N1) (assay: Chimeric human H3 receptor GTP binding assay (agonist-stimulated GTP-gamma35S binding, Example 7)). Conditions: Table I; P2 membranes of Sf9 cells, 1 μM histamine as agonist, Ki from IC50 by Cheng-Prusoff.
T1 construct: made in house; host or cells: Sf9 insect cells (baculovirus); P2 membrane preparation
Type: biochemical
From the text: This Example illustrates a representative assay for evaluating agonist-stimulated GTP-gamma^35S binding (“GTP binding”) activity. […] This agonist-stimulated GTP binding activity can also be used to detect partial agonism mediated by antagonist compounds. A compound analyzed in this assay is referred to herein as a “test compound.”
Four independent baculoviral stocks (one directing the expression of the chimeric human H3 receptor and three directing the expression of each of the three subunits of a heterotrimeric G-protein) are used to infect a culture of Sf9 cells as described above. P2 membranes are prepared as described above, and agonist-stimulated GTP binding on the P2 membranes is assessed using histamine (Sigma Chemical Co., St. Louis, Mo.) as agonist in order to ascertain that the receptor/G-protein-alpha-beta-gamma combination(s) yield a functional response as measured by GTP binding. P2 membranes are resuspended by Dounce homogenization (tight pestle) in GTP binding assay buffer (50 mM Tris pH 7.4, 120 mM NaCl, 5 mM MgCl2, 2 mM EGTA, 1 mg/ml BSA, 0.2 mg/ml bacitracin, 0.02 mg/ml aprotinin, 0.01 mg/ml saponin, 10 μM GDP) and added to assay tubes at a concentration of 35 μg protein/reaction tube. After adding increasing doses of histamine at concentrations ranging from 10^−12 M to 10^−5 M, reactions are initiated by the addition of […] GTP-gamma^35S (PERKIN ELMER; Boston, Mass.) with a final assay volume of 0.20 ml. In competition experiments, non-radiolabeled test compounds are added to separate reactions at concentrations ranging from 10^−10 M to 10^−6 M along with 1 μM histamine to yield a final volume of 0.20 ml.
Neutral antagonists are antagonists that are substantially free of inherent agonist activity, and include those test compounds that reduce the histamine-stimulated GTP binding activity towards, but not below, baseline levels. In contrast, in the absence of added histamine, inverse agonists reduce the GTP binding activity of the receptor-containing membranes below baseline.
After a 60-min incubation at room temperature, reactions are terminated by vacuum filtration over WHATMAN GF/C filters (pre-soaked in wash buffer, 0.1% BSA) followed by washing with ice-cold wash buffer (50 mM Tris pH 7.4, 120 mM NaCl). The amount of receptor-bound (and thereby membrane-bound) GTP-gamma^35S is determined by measuring the filter-bound radioactivity, preferably by liquid scintillation spectrometry of the washed filters. Non-specific binding is determined in parallel assays including 10 μM unlabeled GTP-gammaS and typically represents less than 5 percent of total binding. Data is expressed as percent above basal (baseline). The results of GTP binding experiments are analyzed using SIGMAPLOT software (SPSS Inc., Chicago, Ill.). IC50 values are calculated by non-linear regression analysis of dose-response curves using Kaleidograph (Synergy Software, Reading, Pa.).
Alternatively the data is analyzed as follows. First, the average bound radioactivity from negative control wells (no agonist) is subtracted from the bound radioactivity detected for each of the other experimental wells. Second, average bound radioactivity is calculated for the positive control wells (agonist wells). Then, percent inhibition for each compound tested is calculated using the equation:
Calculated IC50 values are converted to K1 values by the Cheng-Prusoff correction (Cheng and Prusoff (1973) Biochem. Pharmacol. 22(23):3099-3108). Accordingly, the following equation: Ki=IC50/(1+[L]/EC50) is used, where [L] is the histamine concentration in the GTP binding assay, and EC50 is the concentration of histamine producing a 50% response, as determined by a dose-response analysis using concentrations of histamine ranging from 10^−10 M to 10^−6M. […]

T1 sequence (Q9Y5N1 with tags, fused parts or gaps): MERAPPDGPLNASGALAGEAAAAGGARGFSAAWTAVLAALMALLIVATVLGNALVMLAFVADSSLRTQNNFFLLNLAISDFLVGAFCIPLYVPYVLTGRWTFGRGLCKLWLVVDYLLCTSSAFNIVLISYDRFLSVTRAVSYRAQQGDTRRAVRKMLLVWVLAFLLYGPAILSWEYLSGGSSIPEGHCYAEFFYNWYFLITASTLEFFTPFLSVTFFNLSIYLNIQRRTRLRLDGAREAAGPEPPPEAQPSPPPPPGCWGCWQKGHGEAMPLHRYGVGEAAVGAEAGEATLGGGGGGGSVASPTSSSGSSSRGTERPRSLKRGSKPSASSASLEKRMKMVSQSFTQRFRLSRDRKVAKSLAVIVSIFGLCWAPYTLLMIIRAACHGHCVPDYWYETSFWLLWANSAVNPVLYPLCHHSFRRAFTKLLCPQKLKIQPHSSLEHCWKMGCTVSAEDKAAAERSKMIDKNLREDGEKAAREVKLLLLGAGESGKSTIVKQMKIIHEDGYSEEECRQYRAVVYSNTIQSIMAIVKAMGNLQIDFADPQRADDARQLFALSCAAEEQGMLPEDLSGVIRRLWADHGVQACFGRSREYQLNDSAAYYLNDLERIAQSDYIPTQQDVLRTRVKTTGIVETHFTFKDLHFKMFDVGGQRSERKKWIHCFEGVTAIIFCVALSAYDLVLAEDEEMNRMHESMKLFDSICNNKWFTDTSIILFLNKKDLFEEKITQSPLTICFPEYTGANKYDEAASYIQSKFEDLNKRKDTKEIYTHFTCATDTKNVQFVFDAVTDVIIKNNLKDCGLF

Ki, < 1 µM:
CNC(=O)c1ccc(-c2ccc3c(c2)CCN(CC(=O)N2CCN(C4CCC4)CC2)C3)cc1 [Compound 72, 4-{2-[2-(4-cyclobutylpiperazin-1-yl)-2-oxoethyl]-1,2,3,4-tetrahydroisoquinolin-6-yl}-N-methylbenzamide]
CC(=O)c1ccc2c(c1)CCN(CC(=O)N1CCN(C3CCC3)CC1)C2c1ccccc1Cl (stereo not shown) [Compound 64, 1-{1-(2-chlorophenyl)-2-[2-(4-cyclobutylpiperazin-1-yl)-2-oxoethyl]-1,2,3,4-tetrahydroisoquinolin-6-yl}ethanone]
CC(C)N1CCN(C(=O)CN2CCc3ccccc3C2Cc2ccccc2)CC1 (stereo not shown) [Compound 55, 1-benzyl-2-[2-(4-isopropylpiperazin-1-yl)-2-oxoethyl]-1,2,3,4-tetrahydroisoquinoline]

Same assay, conditions: Table II "Ki", symbol *; assay of Example 7

Ki, < 1 µM:
COCCNc1ccc2c(n1)CCN(CC(=O)N1CCN(C3CCC3)CC1)C2 [Compound 663, 6-[2-(4-cyclobutylpiperazin-1-yl)-2-oxoethyl]-N-(2-methoxyethyl)-5,6,7,8-tetrahydro-1,6-naphthyridin-2-amine]
COc1ccc(-c2ccc3c(c2)CCN(CC(=O)N2CCN(C4CCCC4)CC2)C3)cc1C [Compound 541, 2-[2-(4-cyclopentylpiperazin-1-yl)-2-oxoethyl]-6-(4-methoxy-3-methylphenyl)-1,2,3,4-tetrahydroisoquinoline]
CC(C)c1ccc(-c2ccc3c(c2)CCN(CC(=O)N2CCN(C4CCC4)CC2)C3)nc1 [Compound 647, 2-[2-(4-cyclobutylpiperazin-1-yl)-2-oxoethyl]-6-(5-isopropylpyridin-2-yl)-1,2,3,4-tetrahydroisoquinoline]
CC1CCCCN1c1ccc2c(n1)CCN(CC(=O)N1CCN(C3CCC3)CC1)C2 (stereo not shown) [Compound 676, 6-[2-(4-cyclobutylpiperazin-1-yl)-2-oxoethyl]-2-(2-methylpiperidin-1-yl)-5,6,7,8-tetrahydro-1,6-naphthyridine]
O=C(CN1CCc2cc(-c3ccc(Cl)cn3)ccc2C1)N1CCN(C2CCC2)CC1 [Compound 631, 6-(5-chloropyridin-2-yl)-2-[2-(4-cyclobutylpiperazin-1-yl)-2-oxoethyl]-1,2,3,4-tetrahydroisoquinoline]

Same assay, conditions: Table II; "*" = Ki in assay of Example 7 less than 1 micromolar

Ki, < 1 µM:
CC(=O)c1ccc(-n2cc3c(n2)CCN(CC(=O)N2CCN(C4CCC4)CC2)C3)nn1 [Compound 202, 1-(6-{5-[2-(4-cyclobutylpiperazin-1-yl)-2-oxoethyl]-4,5,6,7-tetrahydro-2H-pyrazolo[4,3-c]pyridin-2-yl}pyridazin-3-yl)ethanone]
CCC(CC)N1CCN(C(=O)CN2CCc3cc(-c4cncnc4)ccc3C2)CC1 [Compound 145, 2-{2-[4-(1-ethylpropyl)piperazin-1-yl]-2-oxoethyl}-6-pyrimidin-5-yl-1,2,3,4-tetrahydroisoquinoline]
N#Cc1cncc(-n2cc3c(n2)CCN(CC(=O)N2CCN(C4CCC4)CC2)C3)n1 [Compound 271, 6-{5-[2-(4-cyclobutylpiperazin-1-yl)-2-oxoethyl]-4,5,6,7-tetrahydro-2H-pyrazolo[4,3-c]pyridin-2-yl}pyrazine-2-carbonitrile]
O=C(CN1CCc2nc(N3CCCC3)ncc2C1)N1CCN(C2CCC2)CC1 [Compound 204, 6-[2-(4-cyclobutylpiperazin-1-yl)-2-oxoethyl]-2-pyrrolidin-1-yl-5,6,7,8-tetrahydropyrido[4,3-d]pyrimidine]
O=C(CN1CCc2cc(-c3cccnn3)ccc2C1)N1CCN(C2CCC2)CC1 [Compound 129, 2-[2-(4-cyclobutylpiperazin-1-yl)-2-oxoethyl]-6-pyridazin-3-yl-1,2,3,4-tetrahydroisoquinoline]
CC(O)Cc1ccc2c(c1)CCN(CC(=O)N1CCN(C3CCC3)CC1)C2 (stereo not shown) [Compound 250, 1-{2-[2-(4-cyclobutylpiperazin-1-yl)-2-oxoethyl]-1,2,3,4-tetrahydroisoquinolin-6-yl}propan-2-ol]
O=C(CN1CCc2nc(-c3cncnc3)sc2C1)N1CCCC1CN1CCCC1 (stereo not shown) [Compound 110, 5-{2-oxo-2-[2-(pyrrolidin-1-ylmethyl)pyrrolidin-1-yl]ethyl}-2-pyrimidin-5-yl-4,5,6,7-tetrahydro[1,3] thiazolo [5,4-c]pyridine]
O=C(CN1CCc2nc(-c3ccncc3)ncc2C1)N1CCN(C2CCCC2)CC1 [Compound 138, 6-[2-(4-cyclopentylpiperazin-1-yl)-2-oxoethyl]-2-pyridin-4-yl-5,6,7,8-tetrahydropyrido[4,3-d]pyrimidine]
O=C(CN1CCc2nc(OC3CCCC3)ccc2C1)N1CCN(C2CCC2)CC1 [Compound 185, 6-[2-(4-cyclobutylpiperazin-1-yl)-2-oxoethyl]-2-(cyclopentyloxy)-5,6,7,8-tetrahydro-1,6-naphthyridine]
Cc1ccc(-c2ccc3c(c2)CCN(CC(=O)N2CCN(C4CCCC4C)CC2)C3)nn1 (stereo not shown) [Compound 190, 2-{2-[4-(2-methylcyclopentyl)piperazin-1-yl]-2-oxoethyl}-6-(6-methylpyridazin-3-yl)-1,2,3,4-tetrahydroisoquinoline]
O=C(CN1CCc2cc(-c3cscn3)ccc2C1)N1CCN(C2CCC2)CC1 [Compound 119, 2-[2-(4-cyclobutylpiperazin-1-yl)-2-oxoethyl]-6-(1,3-thiazol-4-yl)-1,2,3,4-tetrahydroisoquinoline]
O=C(CN1CCc2nc(N3CCC(F)C3)ccc2C1)N1CCN(C2CCC2)CC1 (stereo not shown) [Compound 225, 6-[2-(4-cyclobutylpiperazin-1-yl)-2-oxoethyl]-2-(3-fluoropyrrolidin-1-yl)-5,6,7,8-tetrahydro-1,6-naphthyridine]
O=C(CN1CCc2ccc(-c3cncnc3)cc2CC1)N1CCN(C2CCC2)CC1 [Compound 104, 3-[2-(4-cyclobutylpiperazin-1-yl)-2-oxoethyl]-7-pyrimidin-5-yl-2,3,4,5-tetrahydro-1H-3-benzazepine]
O=C(CN1CCc2c(cnn2-c2ccc(F)cc2)C1)N1CCN(C2CCC2)CC1 [Compound 234, 5-[2-(4-cyclobutylpiperazin-1-yl)-2-oxoethyl]-1-(4-fluorophenyl)-4,5,6,7-tetrahydro-1H-pyrazolo[4,3-c]pyridine]

Same assay, conditions: Table II; assay of Example 7

Ki, < 1 µM:
O=C(CN1CCc2nn(-c3ccc4nncn4n3)cc2C1)N1CCN(C2CCC2)CC1 [Compound 688, 6-{5-[2-(4-cyclobutylpiperazin-1-yl)-2-oxoethyl]-4,5,6,7-tetrahydro-2H-pyrazolo[4,3-c]pyridin-2-yl}[1,2,4]triazolo[4,3-b]pyridazine]

Same assay, conditions: assay of Example 7; "*" in Ki of Table II

Ki, < 1 µM:
O=C(CN1CCc2nc(-c3cc(C(F)(F)F)ccc3Cl)sc2C1)N1CCN(C2CCC2)CC1 [Compound 374, 2-[2-chloro-5-(trifluoromethyl)phenyl]-5-[2-(4-cyclobutylpiperazin-1-yl)-2-oxoethyl]-4,5,6,7-tetrahydro[1,3]thiazolo [5,4-c]pyridine]
O=C(CN1CCc2nc(-c3cccc(C(F)(F)F)c3)sc2C1)N1CCN(C2CCC2)CC1 [Compound 372, 5-[2-(4-cyclobutylpiperazin-1-yl)-2-oxoethyl]-2-[3-(trifluoromethyl)phenyl]-4,5,6,7-tetrahydro[1,3]thiazolo [5,4-c]pyridine]
